How the values were obtained:
Type in all cases: biochemical
[1] = molecular target: SIK3 (Homo sapiens, UniProt Q9Y2K2); assay: Enzymatic activity assay SIK3, RapidFire mass spectrometry (phosphorylation of CHK-peptide); conditions: RapidFire MS, inhibition of SIK3; read-out: SIK3 RF IC50
Outline: (§1)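 Human SIK1/2/3, 5/0.5/1.5 nM; 12.5 mM HEPES pH 7.0, 10 mM Mg acetate, 0.005% BSA. 30 min cpd pre-inc, + CHK-peptide (10 μM soln) + ATP (100 μM soln), 45 min RT. Formic acid stop; RF-MS phospho ratio; IC50.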

[2] = molecular target: SIK1 (Homo sapiens, UniProt P57059); assay: Enzymatic activity assay SIK1, RapidFire mass spectrometry (phosphorylation of CHK-peptide); conditions: RapidFire MS, inhibition of SIK1; read-out: SIK1 RF IC50
Chain of SIK1 (P57059 whole entry): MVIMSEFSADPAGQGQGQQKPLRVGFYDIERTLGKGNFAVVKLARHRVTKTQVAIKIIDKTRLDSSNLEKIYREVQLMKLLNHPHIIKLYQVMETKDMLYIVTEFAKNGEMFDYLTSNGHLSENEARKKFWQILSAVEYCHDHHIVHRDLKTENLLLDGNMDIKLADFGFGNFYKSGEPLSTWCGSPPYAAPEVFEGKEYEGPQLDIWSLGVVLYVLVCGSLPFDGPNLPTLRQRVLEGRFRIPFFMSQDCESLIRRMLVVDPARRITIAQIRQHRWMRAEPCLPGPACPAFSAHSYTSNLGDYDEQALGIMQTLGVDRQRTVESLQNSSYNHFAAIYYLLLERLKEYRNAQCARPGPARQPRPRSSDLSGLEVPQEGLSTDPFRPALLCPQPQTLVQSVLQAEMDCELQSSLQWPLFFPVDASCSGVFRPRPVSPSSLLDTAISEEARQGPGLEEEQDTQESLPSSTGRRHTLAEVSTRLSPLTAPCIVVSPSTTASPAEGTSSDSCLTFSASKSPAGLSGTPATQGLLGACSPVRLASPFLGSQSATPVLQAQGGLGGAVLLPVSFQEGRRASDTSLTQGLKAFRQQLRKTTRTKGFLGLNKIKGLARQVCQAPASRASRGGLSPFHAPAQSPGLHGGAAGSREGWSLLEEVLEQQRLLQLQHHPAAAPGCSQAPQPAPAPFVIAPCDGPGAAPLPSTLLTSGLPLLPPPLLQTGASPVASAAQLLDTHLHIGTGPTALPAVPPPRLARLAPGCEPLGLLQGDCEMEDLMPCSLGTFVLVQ
Outline: as §1

[3] = molecular target: SIK2 (Homo sapiens, UniProt Q9H0K1); assay: Enzymatic activity assay SIK2, RapidFire mass spectrometry (phosphorylation of CHK-peptide); conditions: RapidFire MS, inhibition of SIK2; read-out: SIK2 RF IC50
Chain of SIK2 (Q9H0K1 whole entry): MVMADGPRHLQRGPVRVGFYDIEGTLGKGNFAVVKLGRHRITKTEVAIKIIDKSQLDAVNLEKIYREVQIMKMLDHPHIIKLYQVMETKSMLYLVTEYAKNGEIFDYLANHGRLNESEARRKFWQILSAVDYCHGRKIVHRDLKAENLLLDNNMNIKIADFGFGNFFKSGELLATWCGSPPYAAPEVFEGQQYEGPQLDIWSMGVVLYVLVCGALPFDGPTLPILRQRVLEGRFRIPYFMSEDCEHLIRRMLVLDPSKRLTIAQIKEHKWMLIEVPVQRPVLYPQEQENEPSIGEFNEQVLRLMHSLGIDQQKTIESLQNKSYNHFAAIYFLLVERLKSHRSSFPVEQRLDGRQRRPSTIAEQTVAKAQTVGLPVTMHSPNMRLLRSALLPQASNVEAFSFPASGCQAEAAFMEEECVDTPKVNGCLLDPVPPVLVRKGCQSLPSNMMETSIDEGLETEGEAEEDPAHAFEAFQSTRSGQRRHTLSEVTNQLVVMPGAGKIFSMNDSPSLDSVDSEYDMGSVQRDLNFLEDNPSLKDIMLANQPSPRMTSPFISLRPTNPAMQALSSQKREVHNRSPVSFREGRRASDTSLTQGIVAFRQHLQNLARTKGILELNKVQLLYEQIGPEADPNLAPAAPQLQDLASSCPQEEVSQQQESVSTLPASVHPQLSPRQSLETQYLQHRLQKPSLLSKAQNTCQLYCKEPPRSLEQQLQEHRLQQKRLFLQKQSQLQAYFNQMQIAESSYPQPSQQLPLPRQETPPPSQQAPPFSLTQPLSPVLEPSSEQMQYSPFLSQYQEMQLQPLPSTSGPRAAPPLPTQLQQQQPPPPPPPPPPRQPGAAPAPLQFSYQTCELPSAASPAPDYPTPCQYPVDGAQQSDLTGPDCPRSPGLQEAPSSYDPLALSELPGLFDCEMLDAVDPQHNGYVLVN
Outline: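 Read-out is the summed phospho-species fraction of CHK-peptide by RapidFire mass spectrometry, normalized between DMSO and 1 μM YKL-05-099. The reaction used 0.5 nM SIK2, 100 μM ATP and 10 μM peptide solutions in HEPES pH 7.0/10 mM magnesium acetate for 45 min at ambient temperature.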

Chain of SIK3 (Q9Y2K2 whole entry): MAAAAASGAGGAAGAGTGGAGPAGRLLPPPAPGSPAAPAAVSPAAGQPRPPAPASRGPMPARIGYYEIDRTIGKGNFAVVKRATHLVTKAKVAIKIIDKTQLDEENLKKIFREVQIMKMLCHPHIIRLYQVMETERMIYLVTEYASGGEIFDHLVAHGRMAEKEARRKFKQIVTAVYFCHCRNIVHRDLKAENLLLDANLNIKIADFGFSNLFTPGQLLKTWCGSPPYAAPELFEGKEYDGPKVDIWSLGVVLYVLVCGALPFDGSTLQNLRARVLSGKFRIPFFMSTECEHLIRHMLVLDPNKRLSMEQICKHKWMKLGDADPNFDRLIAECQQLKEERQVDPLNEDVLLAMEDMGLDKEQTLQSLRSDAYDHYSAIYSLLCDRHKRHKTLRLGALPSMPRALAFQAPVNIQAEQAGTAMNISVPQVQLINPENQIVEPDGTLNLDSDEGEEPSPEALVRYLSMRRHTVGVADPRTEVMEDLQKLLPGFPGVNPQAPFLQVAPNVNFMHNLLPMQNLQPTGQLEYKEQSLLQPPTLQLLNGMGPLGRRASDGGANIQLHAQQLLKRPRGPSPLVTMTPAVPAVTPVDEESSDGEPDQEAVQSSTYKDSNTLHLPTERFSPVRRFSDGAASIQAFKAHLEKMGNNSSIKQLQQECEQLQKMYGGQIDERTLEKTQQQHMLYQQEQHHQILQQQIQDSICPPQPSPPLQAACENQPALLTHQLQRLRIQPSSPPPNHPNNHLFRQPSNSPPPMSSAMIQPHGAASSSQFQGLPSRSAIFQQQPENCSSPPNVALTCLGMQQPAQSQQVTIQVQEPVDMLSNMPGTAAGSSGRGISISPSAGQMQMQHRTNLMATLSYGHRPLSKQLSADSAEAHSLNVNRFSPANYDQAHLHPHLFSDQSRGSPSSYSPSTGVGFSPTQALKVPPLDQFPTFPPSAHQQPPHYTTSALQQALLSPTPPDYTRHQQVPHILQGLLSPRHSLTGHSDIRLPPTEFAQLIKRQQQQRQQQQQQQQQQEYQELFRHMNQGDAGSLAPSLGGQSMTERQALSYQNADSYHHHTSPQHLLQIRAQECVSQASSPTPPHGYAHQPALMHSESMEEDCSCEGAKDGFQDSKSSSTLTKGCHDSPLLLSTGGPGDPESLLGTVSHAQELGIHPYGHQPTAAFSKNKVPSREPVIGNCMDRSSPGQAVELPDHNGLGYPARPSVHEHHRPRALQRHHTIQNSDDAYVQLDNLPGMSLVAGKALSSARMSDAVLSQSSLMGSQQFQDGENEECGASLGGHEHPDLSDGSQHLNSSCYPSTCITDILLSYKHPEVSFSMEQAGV

## Cc1ccc(Nc2ccc3c(c2)ncn3-c2ccc(C(C)O)c(-c3cc(C(F)(F)F)ncc3C)n2)nn1 (stereo not drawn) [Example 332, 1-[6-[5-[(6-methylpyridazin-3-yl)amino]benzimidazol-1-yl]-2-[5-methyl-2-(trifluoromethyl)-4-pyridyl]-3-pyridyl]ethanol]
[1]
  IC50: 2.8 nM
[2]
  IC50: 316 nM
[3]
  IC50: 5.3 nM

## Cc1cc(C(F)F)nn1-c1nc(-n2cnc3cc(F)c(Nc4ccc(Cl)nn4)cc32)ccc1C(C)O (stereo not drawn) [Example 371, 1-[6-[6-[(6-chloropyridazin-3-yl)amino]-5-fluoro-benzimidazol-1-yl]-2-[3-(difluoromethyl)-5-methyl-pyrazol-1-yl]-3-pyridyl]ethanol]
[1]
  IC50: 433 nM
[2]
  IC50: 145 nM
[3]
  IC50: 84.7 nM

## Cc1ccc(Nc2ccc3c(c2)ncn3-c2ccc(C(C)O)c(-c3cn(CC(F)F)nc3C)n2)nn1 (stereo not drawn) [Example 313, 1-[2-[1-(2,2-difluoroethyl)-3-methyl-pyrazol-4-yl]-6-[5-[(6-methylpyridazin-3-yl)amino]benzimidazol-1-yl]-3-pyridyl]ethanol]
[1]
  IC50: 1.4 nM
[2]
  IC50: 138 nM
[3]
  IC50: 1.1 nM

## COc1cc2ncn(-c3ccc(CO)c(N4CCOCC4)n3)c2cc1OC [Example 26, (6-(5,6-Dimethoxy-1H-benzo[d]imidazol-1-yl)-2-morpholinopyridin-3-yl)methanol]
[1]
  IC50: 1440 nM
[2]
  IC50: 806 nM
[3]
  IC50: 699 nM

## COc1cc2ncn(-c3ccc(CO)c(-c4ccc(F)cc4OC)n3)c2cc1OC [Example 16, (6-(5,6-Dimethoxy-1H-benzo[d]imidazol-1-yl)-2-(4-fluoro-2-methoxyphenyl)pyridin-3-yl)methanol]
[1]
  IC50: 2180 nM
[2]
  IC50: 692 nM
[3]
  IC50: 313 nM

## Cc1ccc(Nc2ccc3c(c2)ncn3-c2ccc(C(C)O)c(-n3ncc(C#N)c3C)n2)nn1 (stereo not drawn) [Example 151, 1-[3-(1-Hydroxyethyl)-6-[5-[(6-methylpyridazin-3-yl)amino]benzimidazol-1-yl]-2-pyridyl]-5-methyl-pyrazole-4-carbonitrile]
[1]
  IC50: 1880 nM
[2]
  IC50: 13600 nM
[3]
  IC50: 4710 nM

## CCC(O)c1ccc(-n2cnc3cc(OC)c(OC)cc32)nc1-c1cccc(Cl)c1 (stereo not drawn) [Example 24, 1-(2-(3-Chlorophenyl)-6-(5,6-dimethoxy-1H-benzo[d]imidazol-1-yl)pyridin-3-yl)propan-1-ol]
[1]
  IC50: 727 nM
[2]
  IC50: 353 nM
[3]
  IC50: 192 nM

## COc1cc2c(cc1Nc1cc3c(nn1)CCOC3)ncn2-c1ccc(C(C)O)c(-n2nc(C#N)cc2C)n1 (stereo not drawn) [Example 394, 1-[6-[5-(7,8-dihydro-5~{H}-pyrano[4,3-c]pyridazin-3-ylamino)-6-methoxy-benzimidazol-1-yl]-3-(1-hydroxyethyl)-2-pyridyl]-5-methyl-pyrazole-3-carbonitrile]
[1]
  IC50: 0.6 nM
[2]
  IC50: 13 nM
[3]
  IC50: 0.3 nM

## Cc1ccc(Nc2ccc3c(c2)ncn3-c2ccc(C(C)O)c(-n3nc(C#N)c4c3C(F)(F)CNC4)n2)nn1 (stereo not drawn) [Example 305, 7,7-difluoro-1-[3-(1-hydroxyethyl)-6-[5-[(6-methylpyridazin-3-yl)amino]benzimidazol-1-yl]-2-pyridyl]-5,6-dihydro-4~{H}-pyrazolo[4,3-c]pyridine-3-carbonitrile]
[1]
  IC50: 2.1 nM
[2]
  IC50: 155 nM
[3]
  IC50: 1.7 nM

## Cc1cc(C#N)nn1-c1nc(-n2cnc3cc(OCCN4CCOCC4)ccc32)ccc1C(C)O (stereo not drawn) [Example 68, 1-[3-(1-Hydroxyethyl)-6-[5-(2-morpholinoethoxy)benzimidazol-1-yl]-2-pyridyl]-5-methyl-pyrazole-3-carbonitrile]
[1]
  IC50: 29.7 nM
[2]
  IC50: 179 nM
[3]
  IC50: 27.7 nM

## Cc1ccc(Nc2ccc3c(c2)ncn3-c2ccc(C(C)O)c(-c3cncnc3NC3CC3)n2)nn1 (stereo not drawn) [Example 163, 1-[2-[4-(Cyclopropylamino)pyrimidin-5-yl]-6-[5-[(6-methylpyridazin-3-yl)amino]benzimidazol-1-yl]-3-pyridyl]ethanol]
[1]
  IC50: 181 nM
[2]
  IC50: > 30000 nM
[3]
  IC50: 964 nM

## Cc1ccc(Nc2ccc3c(c2)ncn3-c2ccc(C(C)O)c(-c3cc(C(F)(F)F)n[nH]c3=O)n2)nn1 (stereo not drawn) [Example 223, 5-[3-(1-Hydroxyethyl)-6-[5-[(6-methylpyridazin-3-yl)amino]benzimidazol-1-yl]-2-pyridyl]-3-(trifluoromethyl)-1H-pyridazin-6-one; formic acid]
[1]
  IC50: 335 nM
[2]
  IC50: > 30000 nM
[3]
  IC50: 1570 nM

## COc1cc(C)n(-c2nc(-n3cnc4cc(Nc5ccc(C)nn5)ccc43)ccc2CO)n1 [Example 158, [2-(3-methoxy-5-methyl-pyrazol-1-yl)-6-[5-[(6-methylpyridazin-3-yl)amino]benzimidazol-1-yl]-3-pyridyl]methanol]
[1]
  IC50: 12.8 nM
[2]
  IC50: 2150 nM
[3]
  IC50: 41.9 nM

## Cc1cc(C#N)nn1-c1nc(-n2cnc3cc(Nc4ccn(C)c(=O)n4)ccc32)ccc1C(C)O (stereo not drawn) [Example 146, 1-[3-(1-Hydroxyethyl)-6-[5-[(2-keto-1-methyl-pyrimidin-4-yl)amino]benzimidazol-1-yl]-2-pyridyl]-5-methyl-pyrazole-3-carbonitrile]
[1]
  IC50: 7.8 nM
[2]
  IC50: 227 nM
[3]
  IC50: 34.6 nM

## Cc1ccc(Nc2ccc3c(c2)ncn3-c2ccc(C(C)O)c(-c3nnn(CC(F)(F)F)c3C)n2)nn1 (stereo not drawn) [Example 311, 1-[6-[5-[(6-methylpyridazin-3-yl)amino]benzimidazol-1-yl]-2-[5-methyl-1-(2,2,2-trifluoroethyl)triazol-4-yl]-3-pyridyl]ethanol]
[1]
  IC50: 0.3 nM
[2]
  IC50: 17 nM
[3]
  IC50: 0.3 nM

## Cc1nnc(Nc2cc3ncn(-c4ccc(C(C)O)c(-n5nc(C#N)cc5C)n4)c3cc2F)s1 (stereo not drawn) [Example 385, 1-[6-[6-fluoro-5-[(5-methyl-1,3,4-thiadiazol-2-yl)amino]benzimidazol-1-yl]-3-(1-hydroxyethyl)-2-pyridyl]-5-methyl-pyrazole-3-carbonitrile]
[1]
  IC50: 2.5 nM
[2]
  IC50: 22 nM
[3]
  IC50: 2.8 nM

## Cc1cc(C#N)nn1-c1nc(-n2cnc3cc(Nc4cccnn4)ccc32)ccc1C(C)O (stereo not drawn) [Example 89, 1-[3-(1-Hydroxyethyl)-6-[5-(pyridazin-3-ylamino)benzimidazol-1-yl]-2-pyridyl]-5-methyl-pyrazole-3-carbonitrile]
[1]
  IC50: 0.7 nM
[2]
  IC50: 95 nM
[3]
  IC50: 1.2 nM

## Cc1ccc(Nc2ccc3c(c2)ncn3-c2ccc(C(C)O)c(-c3cn(CC(F)(F)F)nc3C)n2)nn1 (stereo not drawn) [Example 143, 1-[6-[5-[(6-Methylpyridazin-3-yl)amino]benzimidazol-1-yl]-2-[3-methyl-1-(2,2,2-trifluoroethyl)pyrazol-4-yl]-3-pyridyl]ethanol]
[1]
  IC50: 1.3 nM
[2]
  IC50: 103 nM
[3]
  IC50: 0.7 nM

## Cc1cc(C#N)nn1-c1nc(-n2cnc3cc(Nc4ccnnc4)ccc32)ccc1C(C)O (stereo not drawn) [Example 87, 1-[3-(1-Hydroxyethyl)-6-[5-(pyridazin-4-ylamino)benzimidazol-1-yl]-2-pyridyl]-5-methyl-pyrazole-3-carbonitrile]
[1]
  IC50: 2.9 nM
[2]
  IC50: 22 nM
[3]
  IC50: 9.6 nM

## Cc1cnc(Nc2ccc3c(c2)ncn3-c2ccc(C(C)O)c(-n3nc(C#N)cc3C)n2)cn1 (stereo not drawn) [Example 82, 1-[3-(1-Hydroxyethyl)-6-[5-[(5-methylpyrazin-2-yl)amino]benzimidazol-1-yl]-2-pyridyl]-5-methyl-pyrazole-3-carbonitrile]
[1]
  IC50: 2.4 nM
[2]
  IC50: 5 nM
[3]
  IC50: 2.2 nM

## Cc1ccc(Nc2cc3c(cc2F)ncn3-c2ccc(C(C)O)c(-n3nc(C#N)cc3C)n2)nn1 (stereo not drawn) [Example 94, 1-[6-[5-Fluoro-6-[(6-methylpyridazin-3-yl)amino]benzimidazol-1-yl]-3-(1-hydroxyethyl)-2-pyridyl]-5-methyl-pyrazole-3-carbonitrile]
[1]
  IC50: 54.9 nM
[2]
  IC50: 24 nM
[3]
  IC50: 16.6 nM

## Cc1cc(C#N)nn1-c1nc(-n2cnc3cc(NC(=O)C4CC4)ccc32)ccc1C(C)O (stereo not drawn) [Example 327, N-[1-[6-(3-cyano-5-methyl-pyrazol-1-yl)-5-(1-hydroxyethyl)-2-pyridyl]benzimidazol-5-yl]cyclopropanecarboxamide]
[1]
  IC50: 4.1 nM
[2]
  IC50: 40 nM
[3]
  IC50: 7.2 nM

## Cc1ccc(Nc2cc3ncn(-c4ccc(CO)c(-n5nc(C(F)F)cc5C)n4)c3cc2F)nn1 [Example 319, [2-[3-(difluoromethyl)-5-methyl-pyrazol-1-yl]-6-[6-fluoro-5-[(6-methylpyridazin-3-yl)amino]benzimidazol-1-yl]-3-pyridyl]methanol]
[1]
  IC50: 7 nM
[2]
  IC50: 2120 nM
[3]
  IC50: 6.7 nM

## Cc1cc(C#N)nn1-c1nc(-n2cnc3cc(Nc4cnn(C5COC5)c4)ccc32)ccc1C(C)O (stereo not drawn) [Example 71, 1-[3-(1-Hydroxyethyl)-6-[5-[[1-(oxetan-3-yl)pyrazol-4-yl]amino]benzimidazol-1-yl]-2-pyridyl]-5-methyl-pyrazole-3-carbonitrile]
[1]
  IC50: 2.2 nM
[2]
  IC50: 5 nM
[3]
  IC50: 1.4 nM

## Cc1ccc(Nc2ccc3c(c2)ncn3-c2ccc(C(C)O)c(-c3cnc(O)cc3C(F)(F)F)n2)nn1 (stereo not drawn) [Example 164, 5-[3-(1-Hydroxyethyl)-6-[5-[(6-methylpyridazin-3-yl)amino]benzimidazol-1-yl]-2-pyridyl]-4-(trifluoromethyl)pyridin-2-ol]
[1]
  IC50: 963 nM
[2]
  IC50: > 30000 nM
[3]
  IC50: 3300 nM
